This passage reports Ki results from patent US6693072B2, “Elastase inhibitors” (Aventis Pharmaceuticals Inc., priority 1994, dated 2004).

Experiment [1] has as its target human neutrophil elastase (human) (UniProt P08246). The experiment can be described thus: in vitro enzyme inhibition kinetics of human neutrophil elastase, substrate N-MeOSuc-Ala-Ala-Pro-Val-p-nitroanilide.
Experiment [2] deals with T1, human neutrophil elastase (Homo sapiens, UniProt P08246).
T1 construct: Enzyme is purified from human sputum, although recently it has become commercially available; from tissue; host or cells: human sputum
T1 sequence (P08246 30-247 limits assumed): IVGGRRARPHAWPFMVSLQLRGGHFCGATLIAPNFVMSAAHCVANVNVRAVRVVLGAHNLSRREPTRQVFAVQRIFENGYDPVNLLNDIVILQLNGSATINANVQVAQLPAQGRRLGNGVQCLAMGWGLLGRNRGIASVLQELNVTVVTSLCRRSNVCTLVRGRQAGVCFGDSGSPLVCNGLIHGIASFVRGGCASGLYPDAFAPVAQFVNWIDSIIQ
The experiment can be described thus: Human neutrophil elastase in vitro inhibition assay, N-MeOSuc-Ala-Ala-Pro-Val-p-nitroanilide substrate. Type of experiment: biochemical. The conditions noted are these: for human neutrophil elastase, using N-MeOSucAlaAlaProVal-pNA as substrate; enzyme purified from human sputum. The procedure: Human neutrophil elastase is assayed in vitro using N-MeOSuc-[…]-nitroanilide, available commercially, as substrate. The assay buffer, pH and assay techniques are similar to those described by Mehdi, et al., Biochemical and Biophysical Research Communications, 166, 595 (1990). Enzyme is purified from human sputum, although recently it has become commercially available. Kinetic characterization of immediate inhibitors is by means of the Dixon plot, whereas the characterization of slow- and/or tight-binding inhibitors used data analysis techniques reviewed by Williams and Morrison. The synthesis and analytical use of a highly sensitive and convenient substrate of elastase is described in J. Bieth, B. Spiess and C. G. Wermuth, Biochemical Medicine, 11 (1974)350-375.

The Ki is a dissociation constant, usually derived from enzyme kinetics or from competition with a known ligand. With “N-[4-(4-morpholinylcarbonyl)benzoyl]-L-valyl-N'-[3,3,4,4,4-pentafluoro-1-(1-methylethyl)-2-oxobutyl]-trans-4-acetoxyprolinamide (peptide)”, the Ki in experiment [1] stood at 40 nM.
With `CC(C)C(NC(=O)[C@H]1C[C@@H](OCc2ccccc2)CN1C(=O)[C@@H](NC(=O)c1ccc(C(=O)N2CCOCC2)cc1)C(C)C)C(=O)C(F)(F)C(F)(F)F` (stereo partly drawn) [MDL 104,865, N-[4-(4-morpholinylcarbonyl)benzoyl]-L-valyl-N′-[3,3,4,4,4-pentafluoro-1-(1-methylethyl)-2-oxobutyl]-trans-4-benzyloxyprolinamide], the inhibitory constant (Ki) in experiment [2] came out at 20 nM.
Same read-out and setting: as for `CC(C)C(NC(=O)C1CCCCN1C(=O)[C@@H](NC(=O)c1ccc(C(=O)N2CCOCC2)cc1)C(C)C)C(=O)C(F)(F)C(F)(F)F` (mixture of isomers) [MDL 105,759, N-[4-(4-morpholinylcarbonyl)benzoyl]-L-valyl-N′-[3,3,4,4,4-pentafluoro-1-(1-methylethyl)-2-oxobutyl]-D,L-2-pipecolinamide], the figure is 150 nM; as for `CC(C)C(NC(=O)[C@H]1CCN1C(=O)[C@@H](NC(=O)c1ccc(C(=O)N2CCOCC2)cc1)C(C)C)C(=O)C(F)(F)C(F)(F)F` (stereo partly drawn) [MDL 104,238, N-[4-(4-morpholinylcarbonyl)benzoyl]-L-valyl-N′-[3,3,4,4,4-pentafluoro-1-(1-methylethyl)-2-oxobutyl]-L-2-azetamide], 34 nM.
